System: rat red blood cells
Assay: Hemolytic assay
Assay type: cell-based
Settings: 1 μM melittin, 37° C., 1 hour, pH 7.4
Method: Hemolytic assay: Rat blood was used to compare hemolytic effects of free melittin, SSNS, and DSNS using DI water as positive control and PBS as negative control. Briefly, rat red blood cells were washed using 210 mM sodium chloride and dispersed in phosphate buffer saline (pH 7.4), To the SSNS, DSNS and free melittin corresponding to melittin concentration of 0.1 to 10 μM, the same amount of red blood cells was added and incubated at 37° C. for 1 hour. Following, each sample was centrifuged at 300 rcf for 2 min. and the optical density of supernatant was measured (λ=405 nm.) for the quantification of lysed cell amount. The results are shown graphically in FIG. 5 and in the corresponding photographs of FIG. 6.

In the case of CC[C@H](C)[C@H](NC(=O)CN)C(=O)NCC(=O)N[C@@H](C)C(=O)N[C@H](C(=O)N[C@@H](CC(C)C)C(=O)N[C@@H](CCCCN)C(=O)N[C@H](C(=O)N[C@@H](CC(C)C)C(=O)N[C@H](C(=O)N[C@H](C(=O)NCC(=O)N[C@@H](CC(C)C)C(=O)N1CCC[C@H]1C(=O)N[C@@H](C)C(=O)N[C@@H](CC(C)C)C(=O)N[C@H](C(=O)N[C@@H](CO)C(=O)N[C@@H](Cc1c[nH]c2ccccc12)C(=O)N[C@H](C(=O)N[C@@H](CCCCN)C(=O)N[C@@H](CCCNC(=N)N)C(=O)N[C@@H](CCCCN)C(=O)N[C@@H](CCCNC(=N)N)C(=O)N[C@@H](CCC(N)=O)C(=O)N[C@@H](CCC(N)=O)C(N)=O)[C@@H](C)CC)[C@@H](C)CC)[C@@H](C)O)[C@@H](C)O)C(C)C)C(C)C [free melittin, melittin], the “red blood cell lysis” value is reported as “completely lysed the cells”.

Source: patent US20130244953A1, “DUAL SECURED THERAPEUTIC PEPTIDE DELIVERY SYSTEM” (priority 2011, published 2013)
